Structures can show the parent of a compound that is named as a salt.
Tests used:
Type in all cases: binding
Conditions in all cases: His-tagged TEAD protein, biotinylated lipid pocket probe
TEAD2 = TEAD2 (Homo sapiens, UniProt Q15562); experiment: TEAD lipid pocket TR-FRET (Lipid HTRF) competition assay, TEAD2
Procedure: (§1) His-tagged TEAD proteins are pre-incubated with TEAD project compounds for 30 minutes at room temperature. Biotinylated lipid pocket probes are then added to the TEAD/Compound mixture and incubated for 60 minutes at room temperature. The lipid pocket probe competes with the test compound for the TEAD lipid pocket until equilibrium is reached. After 60 minutes, Europium labelled anti-His (Perkin Elmer #ADO 110) and XL665 labelled streptavidin (CIS Bio 610SAXAC) are added to the TEAD/test compound/lipid pocket mixture and incubated for 30 minutes. TR-FRET values are then measured using an EnVision multi-label plate reader (Perkin Elmer Cat #2104-1A.) If the lipid pocket probe binds to TEAD as expected, a TR-FRET signal results from the proximity of Tani-His Eu and XL665. If a TEAD lipid pocket binder such as binds and displaces the lipid pocket probe, the disruption of the TEAD:probe interaction results in a decrease in TR-FRET signal. The potency of compounds as TEAD lipid pocket binders is determined by IC50 value generated using a non-linear 4 parameter curve fit. This assay format enables more sensitive determinations of lipid pocket affinity than the aforementioned TEAD lipid pocket FP assay due to the decreased concentration of TEAD protein required for the TR-FRET assay format.

TEAD4 = TEAD4 (Homo sapiens, UniProt Q15561); experiment: TEAD lipid pocket TR-FRET (Lipid HTRF) competition assay, TEAD4
TEAD4, sequence (Q15561 whole entry, species assumed): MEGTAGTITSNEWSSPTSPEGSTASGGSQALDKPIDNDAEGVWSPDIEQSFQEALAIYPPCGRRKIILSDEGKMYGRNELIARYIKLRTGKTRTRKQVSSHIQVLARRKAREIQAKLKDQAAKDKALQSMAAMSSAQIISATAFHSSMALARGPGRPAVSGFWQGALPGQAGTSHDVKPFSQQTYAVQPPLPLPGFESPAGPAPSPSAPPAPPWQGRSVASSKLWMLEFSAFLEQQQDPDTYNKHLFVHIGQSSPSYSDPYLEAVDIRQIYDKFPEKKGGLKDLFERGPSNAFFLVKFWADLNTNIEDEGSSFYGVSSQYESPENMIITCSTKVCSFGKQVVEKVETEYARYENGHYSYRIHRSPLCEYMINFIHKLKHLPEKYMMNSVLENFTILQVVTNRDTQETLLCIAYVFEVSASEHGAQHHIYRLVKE
Procedure: as §1

TEAD1 = TEAD1 (Homo sapiens, UniProt P28347); experiment: TEAD lipid pocket TR-FRET (Lipid HTRF) competition assay, TEAD1
TEAD1, sequence (P28347 whole entry, species assumed): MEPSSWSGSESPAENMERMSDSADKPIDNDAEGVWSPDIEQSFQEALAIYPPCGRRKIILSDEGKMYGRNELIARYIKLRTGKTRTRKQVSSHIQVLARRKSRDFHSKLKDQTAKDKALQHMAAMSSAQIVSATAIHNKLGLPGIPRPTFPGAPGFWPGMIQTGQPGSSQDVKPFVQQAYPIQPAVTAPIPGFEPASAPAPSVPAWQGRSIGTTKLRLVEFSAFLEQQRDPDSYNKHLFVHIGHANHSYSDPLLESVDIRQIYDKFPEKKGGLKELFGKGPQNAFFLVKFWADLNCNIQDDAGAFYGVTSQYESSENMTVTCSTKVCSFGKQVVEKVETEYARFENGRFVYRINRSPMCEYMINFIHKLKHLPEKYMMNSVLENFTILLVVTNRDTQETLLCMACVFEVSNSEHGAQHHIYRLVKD
Procedure: as §1

TEAD3 = TEAD3 (Homo sapiens, UniProt Q99594); experiment: TEAD lipid pocket TR-FRET (Lipid HTRF) competition assay, TEAD3
TEAD3, sequence (Q99594 whole entry, species assumed): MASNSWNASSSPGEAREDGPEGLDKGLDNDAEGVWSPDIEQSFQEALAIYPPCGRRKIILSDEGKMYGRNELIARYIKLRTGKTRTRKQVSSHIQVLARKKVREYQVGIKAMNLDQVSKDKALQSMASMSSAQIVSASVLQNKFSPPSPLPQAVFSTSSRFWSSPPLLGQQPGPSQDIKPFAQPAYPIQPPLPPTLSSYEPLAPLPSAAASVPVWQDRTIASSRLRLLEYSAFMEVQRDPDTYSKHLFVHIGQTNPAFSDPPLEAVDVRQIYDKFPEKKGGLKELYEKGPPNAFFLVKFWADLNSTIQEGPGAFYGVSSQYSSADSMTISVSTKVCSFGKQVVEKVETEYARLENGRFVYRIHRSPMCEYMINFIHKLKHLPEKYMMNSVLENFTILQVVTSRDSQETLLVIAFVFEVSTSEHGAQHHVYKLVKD
Procedure: as §1

TEAD2, sequence (Q15562 whole entry, species assumed): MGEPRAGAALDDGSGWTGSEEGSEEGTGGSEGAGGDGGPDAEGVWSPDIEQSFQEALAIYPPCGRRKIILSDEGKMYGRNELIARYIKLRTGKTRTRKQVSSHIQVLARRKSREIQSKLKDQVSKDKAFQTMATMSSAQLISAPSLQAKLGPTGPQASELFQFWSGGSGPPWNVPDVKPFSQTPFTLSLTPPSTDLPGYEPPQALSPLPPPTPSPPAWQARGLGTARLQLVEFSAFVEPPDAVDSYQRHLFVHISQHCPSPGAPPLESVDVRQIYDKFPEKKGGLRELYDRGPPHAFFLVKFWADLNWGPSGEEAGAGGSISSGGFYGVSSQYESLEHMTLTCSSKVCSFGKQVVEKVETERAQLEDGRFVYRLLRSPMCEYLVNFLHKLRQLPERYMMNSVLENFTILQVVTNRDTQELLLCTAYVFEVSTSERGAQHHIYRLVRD

Row | IC50 (TEAD2) [nM] | IC50 (TEAD4) [nM] | IC50 (TEAD1) [nM] | IC50 (TEAD3) [nM] | Compound
1 | 380 | 170 | 600 | 3630 | COc1cnc(C(=O)NCc2cccc(CC(=O)NCCOCCOCCOCC(=O)N[C@H](C(=O)N3C[C@H](O)C[C@H]3C(=O)NCc3ccc(-c4scnc4C)cc3)C(C)(C)C)c2)cc1/C=C/[C@H]1CC[C@H](C(F)(F)F)CC1 [Compound 15, N-(3-((S)-16-((2S,4R)-4-Hydroxy-2-((4-(4-methylthiazol-5-yl)benzyl)carbamoyl)pyrrolidine-1-carbonyl)-17,17-dimethyl-2,14-dioxo-6,9,12-trioxa-3,15-diazaoctadecyl)benzyl)-5-methoxy-4-((E)-2-(trans-4-(trifluoromethyl)cyclohexyl)vinyl)picolinamide]
2 | 160 | 60 | 350 | 2570 | COc1cnc(C(=O)NCc2cccc(CC(=O)NCCOCCOCCOCCOCC(=O)N[C@H](C(=O)N3C[C@H](O)C[C@H]3C(=O)NCc3ccc(-c4scnc4C)cc3)C(C)(C)C)c2)cc1/C=C/[C@H]1CC[C@H](C(F)(F)F)CC1 [Compound 16, N-(3-((S)-19-((2S,4R)-4-Hydroxy-2-((4-(4-methylthiazol-5-yl)benzyl)carbamoyl)pyrrolidine-1-carbonyl)-20,20-dimethyl-2,17-dioxo-6,9,12,15-tetraoxa-3,18-diazahenicosyl)benzyl)-5-methoxy-4-((E)-2-(trans-4-(trifluoromethyl)cyclohexyl)vinyl)picolinamide]
3 | 90 | 40 | 280 | 1500 | COc1cnc(C(=O)NCc2cccc(CC(=O)NCCOCCOCCOCCOCCOCC(=O)N[C@H](C(=O)N3C[C@H](O)C[C@H]3C(=O)NCc3ccc(-c4scnc4C)cc3)C(C)(C)C)c2)cc1/C=C/[C@H]1CC[C@H](C(F)(F)F)CC1 [Compound 17, N-(3-((S)-22-((2S,4R)-4-Hydroxy-2-((4-(4-methylthiazol-5-yl)benzyl)carbamoyl)pyrrolidine-1-carbonyl)-23,23-dimethyl-2,20-dioxo-6,9,12,15,18-pentaoxa-3,21-diazatetracosyl)benzyl)-5-methoxy-4-((E)-2-(trans-4-(trifluoromethyl)cyclohexyl)vinyl)picolinamide]
4 | 490 | 140 | 600 | 4800 | CN[C@@H](C)C(=O)N[C@H](C(=O)N1CCC[C@H]1C(=O)Nc1sc(NC(=O)COCCOCCOCCOCCN(C)C(=O)Cc2cccc(CNC(=O)c3cc(/C=C/[C@H]4CC[C@H](C(F)(F)F)CC4)c(OC)cn3)c2)nc1-c1ccccc1)C1CCCCC1 [Compound 18, N-(3-(17-((5-((S)-1-((S)-2-Cyclohexyl-2-((S)-2-(methylamino)propanamido)acetyl)pyrrolidine-2-carboxamido)-4-phenylthiazol-2-yl)amino)-3-methyl-2,17-dioxo-6,9,12,15-tetraoxa-3-azaheptadecyl)benzyl)-5-methoxy-4-((E)-2-(trans-4-(trifluoromethyl)cyclohexyl)vinyl)picolinamide]
5 | 360 | 140 | 540 | 4100 | CN[C@@H](C)C(=O)N[C@H](C(=O)N1CCC[C@H]1C(=O)Nc1sc(NC(=O)COCCOCCOCCOCCOCCN(C)C(=O)Cc2cccc(CNC(=O)c3cc(/C=C/[C@H]4CC[C@H](C(F)(F)F)CC4)c(OC)cn3)c2)nc1-c1ccccc1)C1CCCCC1 [Compound 19, N-(3-(20-((5-((S)-1-((S)-2-Cyclohexyl-2-((S)-2-(methylamino)propanamido)acetyl)pyrrolidine-2-carboxamido)-4-phenylthiazol-2-yl)amino)-3-methyl-2,20-dioxo-6,9,12,15,18-pentaoxa-3-azaicosyl)benzyl)-5-methoxy-4-((E)-2-(trans-4-(trifluoromethyl)cyclohexyl)vinyl)picolinamide]
6 | 340 | 130 | 510 | 4300 | CN[C@@H](C)C(=O)N[C@H](C(=O)N1CCC[C@H]1C(=O)Nc1sc(NC(=O)COCCOCCOCCOCCOCCOCCN(C)C(=O)Cc2cccc(CNC(=O)c3cc(/C=C/[C@H]4CC[C@H](C(F)(F)F)CC4)c(OC)cn3)c2)nc1-c1ccccc1)C1CCCCC1 [Compound 20, N-(3-(23-((5-((S)-1-((S)-2-Cyclohexyl-2-((S)-2-(methylamino)propanamido)acetyl)pyrrolidine-2-carboxamido)-4-phenylthiazol-2-yl)amino)-3-methyl-2,23-dioxo-6,9,12,15,18,21-hexaoxa-3-azatricosyl)benzyl)-5-methoxy-4-((E)-2-(trans-4-(trifluoromethyl)cyclohexyl)vinyl)picolinamide formate]
7 | 1000 | 430 | 1300 | 6200 | CN[C@@H](C)C(=O)N[C@H](C(=O)N1CCC[C@H]1C(=O)Nc1sc(NC(=O)CCCN(C)C(=O)Cc2cccc(CNC(=O)c3cc(/C=C/[C@H]4CC[C@H](C(F)(F)F)CC4)c(OC)cn3)c2)nc1-c1ccccc1)C1CCCCC1 [Compound 21, N-(3-(2-((4-((5-((S)-1-((S)-2-Cyclohexyl-2-((S)-2-(methylamino)propanamido)acetyl)pyrrolidine-2-carboxamido)-4-phenylthiazol-2-yl)amino)-4-oxobutyl)(methyl)amino)-2-oxoethyl)benzyl)-5-methoxy-4-((E)-2-(trans-4-(trifluoromethyl)cyclohexyl)vinyl)picolinamide]

Source: patent US12643880B2, “Heterobifunctional molecules as TEAD inhibitors” (Genentech, Inc., priority 2020, dated 2026)
